Columns and labels:
[1] = Measurement of birefringence (Δn) of retardation films by Axoscan; type: physicochemical; settings: retardation film of the compound; solvent TXB, TAC film; Δn calculated from retardation value and film thickness
Method: The liquid crystal composition coated with a roll coating method on a TAC (triacetyl cellulose) film on which norbornene-based photoaligning material was coated, and dried at about 80° C. for 2 mins so as that the liquid crystal compound was aligned. And then, the retardation film was prepared by exposing the film to a non-polarized UV from a high pressure mercury lamp of 200 mW/cm^2 so as to fixing the oriented state of the liquid crystal.
Like above method, the compositions including any one of compounds RM-02 to RM-08 instead of compound RM-01 were prepared, and the retardation films were prepared respectively by using the same.
And, the retardation film was prepared substantially according to the same method as in Preparation Examples 1˜8, except that the compound of Chemical Formula 10 was used instead of compound RM-01.
Quantitative retardation values of the retardation films according to Preparation Examples 1˜8, Comparative Preparation Examples 1˜2, and Reference Example were measured by using Axoscan (made by Axomatrix Co.). At this time, the thickness of the film was independently measured and Δn was calculated from the obtained values.

[2] = Measurement of solubility of the compound in various solvents; type: physicochemical; settings: for Solubility TXB: TXB = Toluene:Xylene:Butyl cellosolve 7:2:1 (weight ratio); for Solubility TXB / Solubility Cyclopentanone / Solubility Toluene + Heated: 25 parts by weight per 100 parts of solution; for Solubility Toluene + Heated: room temperature solution heated about 10 secs with a heat gun; for Solubility Toluene: 25 parts by weight of compound per 100 parts by weight of total solution
Method: At this time, the content of each compound in the solvent was 25 parts by weight per 100 parts by weight of total solution. In the following Table 1, when the compound was completely dissolved in the solvent and the solution was transparent, it was indicated by ‘◯’; when the compound was dissolved in the solvent but the solution was opaque, it was indicated by ‘Δ’; and when the compound was not dissolved at all, it was indicated by ‘×’. And, the term ‘heated’ in Table 1 means that the solution of room temperature including the compound was heated for about 10 secs by using a heat gun.

Structure (SMILES)	Δn (Solvent, Film) [1]	Solubility TXB [2]	Solubility Cyclopentanone [2]	Solubility Toluene + Heated [2]	Solubility Toluene [2]	Solubility in TXB mixed solvent [2]	Solubility in toluene [2]	Solubility in toluene with heating [2]
C=CC(=O)OCCCOc1ccc(C(=O)Oc2ccc(OC(=O)c3ccc(OCCCOC(=O)C=C)cc3)c(C)c2)cc1 [RM257, reference compound]	0.12 (TXB, TAC)	∘	∘	∘	–	–	–	–
C=CC(=O)OCCCOc1ccc2cc(C(=O)Oc3ccc(OC(=O)c4ccc5cc(OCCCOC(=O)C=C)ccc5c4)c(C=O)c3)ccc2c1 [RM-01]	0.17 (TXB, TAC)	∘	∘	∘	–	–	–	–
C=CC(=O)OCCCCCCOc1ccc2cc(C(=O)Oc3ccc(OC(=O)c4ccc5cc(OCCCCCCOC(=O)C=C)ccc5c4)c(C=O)c3)ccc2c1 [RM-02]	0.18 (TXB, TAC)	∘	–	∘	–	–	–	–
C=CC(=O)OCCCOc1ccc2cc(C(=O)Oc3ccc(OC(=O)c4ccc5cc(OCCCOC(=O)C=C)ccc5c4)c([N+](=O)[O-])c3)ccc2c1 [RM-03]	0.17 (TXB, TAC)	∘	∘	∘	∘	–	–	–
C=CC(=O)OCCCCCCOc1ccc2cc(C(=O)Oc3ccc(OC(=O)c4ccc5cc(OCCCCCCOC(=O)C=C)ccc5c4)c([N+](=O)[O-])c3)ccc2c1 [RM-04]	0.20 (TXB, TAC)	∘	∘	∘	–	–	–	–
C=CC(=O)OCCCOc1ccc2cc(C(=O)Oc3ccc(OC(=O)c4ccc5cc(OCCCOC(=O)C=C)ccc5c4)c(S(C)(=O)=O)c3)ccc2c1 [RM-05]	0.19 (TXB, TAC)	∘	∘	∘	∘	–	–	–
C=CC(=O)OCCCCCCOc1ccc2cc(C(=O)Oc3ccc(OC(=O)c4ccc5cc(OCCCCCCOC(=O)C=C)ccc5c4)c(S(C)(=O)=O)c3)ccc2c1 [RM-06]	0.20 (TXB, TAC)	∘	∘	∘	–	–	–	–
C=CC(=O)OCCCOc1ccc2cc(C(=O)Oc3ccc(OC(=O)c4ccc5cc(OCCCOC(=O)C=C)ccc5c4)c(S(=O)(=O)CC)c3)ccc2c1 [RM-07]	0.19 (TXB, TAC)	∘	∘	∘	∘	–	–	–
C=CC(=O)OCCCCCCOc1ccc2cc(C(=O)Oc3ccc(OC(=O)c4ccc5cc(OCCCCCCOC(=O)C=C)ccc5c4)c(S(=O)(=O)CC)c3)ccc2c1 [RM-08]	0.22 (TXB, TAC)	∘	∘	∘	–	–	–	–
C=CC(=O)OCCCOc1ccc2cc(C(=O)Oc3ccc(OC(=O)c4ccc5cc(OCCCOC(=O)C=C)ccc5c4)cc3)ccc2c1 [RM-09, reference compound]	–	–	–	–	–	not dissolved in TXB mixed solvent at all	not dissolved in toluene at all	just opaque solution was obtained
C=CC(=O)OCCCCCCOc1ccc2cc(C(=O)Oc3ccc(OC(=O)c4ccc5cc(OCCCCCCOC(=O)C=C)ccc5c4)cc3)ccc2c1 [RM-10, reference compound]	–	–	–	–	–	not dissolved in TXB mixed solvent at all	not dissolved in toluene at all	just opaque solution was obtained

From patent publication US9127103B2, “Polymerizable liquid crystal compound, a liquid crystal composition comprising the compound, and an optically anisotropic body comprising the same” (LG CHEM, LTD., priority 2012, dated 2015)
